In brackets after ≈: the same amount, converted by molar mass.
Experiments:
Format in all cases: functional
[1] = test system: Streptococcus pneumoniae; assay: Effect on 2 ug/ml moxifloxacin-selected penicillin-resistant Streptococcus pneumoniae 218 mutant after five passages assessed as susceptibility by agar dilution method
[2] = test system: Staphylococcus aureus; assay: Susceptibility of methicillin-sensitive/resistant Staphylococcus aureus single-step mutant by agar dilution method
[3] = test system: Streptococcus pneumoniae; assay: Susceptibility of penicillin-resistant Streptococcus pneumoniae 335 by agar dilution method
[4] = test system: Streptococcus pneumoniae; assay: Effect on 0.06 ug/ml DQ113-selected penicillin-resistant Streptococcus pneumoniae 335 mutant after five passages assessed as susceptibility by agar dilution method
[5] = test system: Streptococcus pneumoniae; assay: Effect on 0.5 ug/ml […]-selected penicillin-resistant Streptococcus pneumoniae 335 mutant after five passages assessed as susceptibility by agar dilution method
[6] = test system: Streptococcus pneumoniae; assay: Effect on 1 ug/ml moxifloxacin-selected penicillin-resistant Streptococcus pneumoniae 335 mutant after five passages assessed as susceptibility by agar dilution method
[7] = test system: Streptococcus pneumoniae; assay: Effect on 0.06 ug/ml DQ113-selected penicillin-resistant Streptococcus pneumoniae 334 mutant after five passages assessed as susceptibility by agar dilution method
[8] = test system: Streptococcus pneumoniae; assay: Effect on 8 ug/ml ciprofloxacin-selected penicillin-resistant Streptococcus pneumoniae 216 mutant after five passages assessed as susceptibility by agar dilution method
[9] = test system: Streptococcus pneumoniae; assay: Susceptibility of penicillin-resistant Streptococcus pneumoniae 218 by agar dilution method
[10] = test system: Streptococcus pneumoniae; assay: Effect on 0.06 ug/ml DQ113-selected penicillin-resistant Streptococcus pneumoniae 218 mutant after five passages assessed as susceptibility by agar dilution method
[11] = test system: Streptococcus pneumoniae; assay: Effect on 0.5 ug/ml sitafloxacin-selected penicillin-resistant Streptococcus pneumoniae 218 mutant after five passages assessed as susceptibility by agar dilution method
[12] = test system: Streptococcus pneumoniae; assay: Effect on 16 ug/ml levofloxacin-selected penicillin-resistant Streptococcus pneumoniae 218 mutant after five passages assessed as susceptibility by agar dilution method
[13] = test system: Streptococcus pneumoniae; assay: Effect on 16 ug/ml ciprofloxacin-selected penicillin-resistant Streptococcus pneumoniae 218 mutant after five passages assessed as susceptibility by agar dilution method
[14] = test system: Enterococcus; assay: Susceptibility of vancomycin-resistant Enterococcus species single-step mutant by agar dilution method
[15] = test system: Enterococcus; assay: Susceptibility of drug-selected vancomycin-resistant Enterococcus species mutant by agar dilution method
[16] = test system: Streptococcus pneumoniae; assay: Effect on 16 ug/ml levofloxacin-selected penicillin-resistant Streptococcus pneumoniae 335 mutant after five passages assessed as susceptibility by agar dilution method
[17] = test system: Streptococcus pneumoniae; assay: Effect on 16 ug/ml ciprofloxacin-selected penicillin-resistant Streptococcus pneumoniae 335 mutant after five passages assessed as susceptibility by agar dilution method
[18] = test system: Streptococcus pneumoniae; assay: Susceptibility of penicillin-resistant Streptococcus pneumoniae 334 by agar dilution method
[19] = test system: Streptococcus pneumoniae; assay: Effect on 0.5 ug/ml sitafloxacin-selected penicillin-resistant Streptococcus pneumoniae 334 mutant after five passages assessed as susceptibility by agar dilution method
[20] = test system: Streptococcus pneumoniae; assay: Effect on 1 ug/ml moxifloxacin-selected penicillin-resistant Streptococcus pneumoniae 334 mutant after five passages assessed as susceptibility by agar dilution method
[21] = test system: Streptococcus pneumoniae; assay: Effect on 4 ug/ml levofloxacin-selected penicillin-resistant Streptococcus pneumoniae 334 mutant after five passages assessed as susceptibility by agar dilution method
[22] = test system: Streptococcus pneumoniae; assay: Effect on 32 ug/ml ciprofloxacin-selected penicillin-resistant Streptococcus pneumoniae 334 mutant after five passages assessed as susceptibility by agar dilution method
[23] = test system: Streptococcus pneumoniae; assay: Susceptibility of penicillin-resistant Streptococcus pneumoniae 216 by agar dilution method
[24] = test system: Streptococcus pneumoniae; assay: Effect on 0.06 ug/ml DQ113-selected penicillin-resistant Streptococcus pneumoniae 216 mutant after five passages assessed as susceptibility by agar dilution method
[25] = test system: Streptococcus pneumoniae; assay: (§1) Effect on 0.5 ug/ml sitafloxacin-selected penicillin-resistant Streptococcus pneumoniae 216 mutant after five passages assessed as susceptibility by agar dilution method
[26] = test system: Streptococcus pneumoniae; assay: Effect on 2 ug/ml moxifloxacin-selected penicillin-resistant Streptococcus pneumoniae 216 mutant after five passages assessed as susceptibility by agar dilution method
[27] = test system: Streptococcus pneumoniae; assay: (§2) Effect on 4 ug/ml levofloxacin-selected penicillin-resistant Streptococcus pneumoniae 216 mutant after five passages assessed as susceptibility by agar dilution method
[28] = test system: Streptococcus pneumoniae; assay: Effect on 32 ug/ml ciprofloxacin-selected penicillin-resistant Streptococcus pneumoniae 216 mutant after five passages assessed as susceptibility by agar dilution method
[29] = test system: Streptococcus pneumoniae; assay: Susceptibility of penicillin-resistant Streptococcus pneumoniae 217 by agar dilution method
[30] = test system: Streptococcus pneumoniae; assay: Effect on 0.03 ug/ml DQ113-selected penicillin-resistant Streptococcus pneumoniae 216 mutant after five passages assessed as susceptibility by agar dilution method
[31] = test system: Streptococcus pneumoniae; assay: as §1; remark: listed apart in the source
[32] = test system: Streptococcus pneumoniae; assay: Effect on 0.5 ug/ml moxifloxacin-selected penicillin-resistant Streptococcus pneumoniae 216 mutant after five passages assessed as susceptibility by agar dilution method
[33] = test system: Streptococcus pneumoniae; assay: as §2; remark: listed apart in the source

Row | Compound | MIC [1] | MIC [2] | MIC [3] | MIC [4] | MIC [5] | MIC [6] | MIC [7] | MIC [8] | MIC [9] | MIC [10] | MIC [11] | MIC [12] | MIC [13] | MIC [14] | MIC [16] | MIC [17] | MIC [18] | MIC [19] | MIC [20] | MIC [26] | also measured
1 | N[C@@H]1CN(c2c(F)cc3c(=O)c(C(=O)O)cn(C4C[C@@H]4F)c3c2Cl)CC12CC2 (single isomer, unassigned) [SITAFLOXACIN ANHYDROUS] | 1 µg/mL | 0.25 µg/mL (≈ 0.61 µM) | 0.12 µg/mL (≈ 0.293 µM) | 0.5 µg/mL (≈ 1.22 µM) | 2 µg/mL | 0.5 µg/mL | 0.5 µg/mL (≈ 1.22 µM) | 0.5 µg/mL | 0.12 µg/mL (≈ 0.293 µM) | 1 µg/mL (≈ 2.44 µM) | 1 µg/mL | 0.5 µg/mL | 2 µg/mL | 4 µg/mL (≈ 9.76 µM) | 4 µg/mL | 0.5 µg/mL | 0.06 µg/mL (≈ 0.146 µM) | 0.5 µg/mL | 0.12 µg/mL | 4 µg/mL | MIC ([15]; read-out: MIC): 8 µg/mL (≈ 19.5 µM); MIC [21]: 0.5 µg/mL; MIC [22]: 0.5 µg/mL; MIC [23]: 0.06 µg/mL (≈ 0.146 µM); MIC [24]: 0.5 µg/mL (≈ 1.22 µM); MIC [25]: 2 µg/mL; MIC [27]: 0.5 µg/mL; MIC [28]: 1 µg/mL; MIC [29]: 0.12 µg/mL (≈ 0.293 µM); MIC [30]: 0.25 µg/mL (≈ 0.61 µM); MIC [31]: 1 µg/mL; MIC [32]: 0.5 µg/mL; MIC [33]: 0.12 µg/mL
2 | O=C(O)c1cn(C2CC2)c2cc(N3CCNCC3)c(F)cc2c1=O [CIPROFLOXACIN] | 128 µg/mL | – | 1 µg/mL (≈ 3.02 µM) | 4 µg/mL (≈ 12.1 µM) | 16 µg/mL | 4 µg/mL | 8 µg/mL (≈ 24.1 µM) | 32 µg/mL | 1 µg/mL (≈ 3.02 µM) | 8 µg/mL (≈ 24.1 µM) | 16 µg/mL | 8 µg/mL | 128 µg/mL | 16 µg/mL (≈ 48.3 µM) | 128 µg/mL | 16 µg/mL | 1 µg/mL (≈ 3.02 µM) | 64 µg/mL | 8 µg/mL | 128 µg/mL | MIC [21]: 32 µg/mL; MIC [22]: 32 µg/mL; MIC [24]: 16 µg/mL (≈ 48.3 µM); MIC [25]: 32 µg/mL; MIC [27]: 16 µg/mL; MIC [28]: 32 µg/mL; MIC [29]: 1 µg/mL (≈ 3.02 µM); MIC [30]: 4 µg/mL (≈ 12.1 µM); MIC [31]: 32 µg/mL; MIC [32]: 4 µg/mL; MIC [33]: 4 µg/mL
3 | Cc1c(N2C[C@@H](F)[C@@H](C3(N)CC3)C2)c(F)c(N)c2c(=O)c(C(=O)O)cn([C@@H]3C[C@@H]3F)c12 [DQ-113] | 0.03 µg/mL | 0.03 µg/mL (≈ 0.0687 µM) | 0.002 µg/mL (≈ 0.00458 µM) | 0.015 µg/mL (≈ 0.0344 µM) | 0.03 µg/mL | 0.03 µg/mL | 0.06 µg/mL (≈ 0.137 µM) | 0.015 µg/mL | 0.004 µg/mL (≈ 0.00917 µM) | 0.03 µg/mL (≈ 0.0687 µM) | 0.015 µg/mL | 0.015 µg/mL | 0.06 µg/mL | 2 µg/mL (≈ 4.58 µM) | 0.12 µg/mL | 0.007 µg/mL | 0.004 µg/mL (≈ 0.00917 µM) | 0.06 µg/mL | 0.015 µg/mL | 0.12 µg/mL | MIC ([15]; read-out: MIC): 8 µg/mL (≈ 18.3 µM); MIC [21]: 0.03 µg/mL; MIC [22]: 0.03 µg/mL; MIC [23]: 0.001 µg/mL (≈ 0.00229 µM); MIC [24]: 0.06 µg/mL (≈ 0.137 µM); MIC [25]: 0.03 µg/mL; MIC [27]: 0.007 µg/mL; MIC [28]: 0.015 µg/mL; MIC [29]: 0.004 µg/mL (≈ 0.00917 µM); MIC [30]: 0.007 µg/mL (≈ 0.016 µM); MIC [31]: 0.03 µg/mL; MIC [32]: 0.015 µg/mL; MIC [33]: 0.002 µg/mL
4 | C[C@H]1COc2c(N3CCN(C)CC3)c(F)cc3c(=O)c(C(=O)O)cn1c23.C[C@H]1COc2c(N3CCN(C)CC3)c(F)cc3c(=O)c(C(=O)O)cn1c23.O [LEVOFLOXACIN] | – | 2 µg/mL | – | – | – | – | – | – | – | – | – | – | – | 16 µg/mL | 64 µg/mL | – | – | – | – | 64 µg/mL | MIC ([15]; read-out: MIC): 256 µg/mL
5 | COc1c(N2C[C@@H]3CCCN[C@@H]3C2)c(F)cc2c(=O)c(C(=O)O)cn(C3CC3)c12 [MOXIFLOXACIN] | 4 µg/mL | 0.5 µg/mL (≈ 1.25 µM) | 0.12 µg/mL (≈ 0.299 µM) | 1 µg/mL (≈ 2.49 µM) | 1 µg/mL | 2 µg/mL | 2 µg/mL (≈ 4.98 µM) | 2 µg/mL | 0.12 µg/mL (≈ 0.299 µM) | 1 µg/mL (≈ 2.49 µM) | 1 µg/mL | 1 µg/mL | 4 µg/mL | 8 µg/mL (≈ 19.9 µM) | 8 µg/mL | 0.5 µg/mL | 0.12 µg/mL (≈ 0.299 µM) | 4 µg/mL | 0.5 µg/mL | 8 µg/mL | MIC [15]: 64 µg/mL (≈ 159 µM); MIC [21]: 2 µg/mL; MIC [22]: 1 µg/mL; MIC [23]: 0.06 µg/mL (≈ 0.149 µM); MIC [24]: 2 µg/mL (≈ 4.98 µM); MIC [25]: 2 µg/mL; MIC [27]: 0.25 µg/mL; MIC [28]: 0.5 µg/mL; MIC [29]: 0.25 µg/mL (≈ 0.623 µM); MIC [30]: 0.25 µg/mL (≈ 0.623 µM); MIC [31]: 2 µg/mL; MIC [32]: 1 µg/mL; MIC [33]: 0.25 µg/mL

From ChEMBL document CHEMBL1146198, “In vitro studies with DQ-113 and comparison fluoroquinolones to determine propensities to select resistance in gram-positive cocci” (2007)
